Measurements as given in article PMC12229680, “Neuroprotective and intraocular pressure lowering effects of dual-functional memantine nitrate MN-08 on the experimental models of glaucoma” (Scientific Reports, 2025).

Assays:
[1] = tested on: preclinical models and glaucoma patients; set-up: method as in PMID 25488946, PMID 28234563, PMID 21396362; details: cited from earlier work
[2] = tested on: human trabecular meshwork cells (HTMCs); experiment: cGMP ELISA assay in HTMCs; type: cell-based; details: 30 min
Description: Primary human trabecular meshwork cells (HTMCs) were isolated from the juxtacanalicular and corneoscleral regions of the human eye from ScienCell Research Laboratories (ScienCell, Carlsbad, CA). HTMCs were maintained in a complete medium consisting of DMEM enriched with 10% fetal bovine serum (FBS) and antibiotics (100 U/ml penicillin and 100 μg/ml streptomycin). Cells were cultured in a humidified incubator containing 5% CO2 at 37 °C. Experiments are conducted using HTMCs between the 5th and 8th passages to avoid cellular senescence. All reagents were obtained from Gibco (San Diego, CA, USA).
HTMCs were seeded at a density of 2 × 10^5 cells per well in 6-well plates. When reaching 80% confluency, the cells were subsequently incubated overnight in low-serum medium (DMEM supplemented with 0.5% FBS). […] After incubating, cells were harvested and lysed, and the levels of cGMP were detected by an ELISA kit (Abcam Corporation, Cambridge, UK). The procedure was conducted following the instructions provided by the manufacturer.

glaucoma patients = details: cited from earlier work
[3] = tested on: retinal ganglion cells (RGCs) in retinal ischemia–reperfusion injury rats; experiment: Retinal ischemia–reperfusion injury model in rats (HE staining, Brn-3a immunofluorescence); type: in vivo, rat; details: Memantine 10 mg/kg tail vein, vs Model group
Description: Male Sprague Dawley rats were anesthetized with pentobarbital sodium (30 mg/kg, i.p.). Local anesthesia was administered to the corneas using tetracaine hydrochloride, followed by pupil dilation with tropicamide. A 30-gauge infusion needle was inserted into the anterior chamber of the eye and connected to a normal saline reservoir until the iris turned white. Retinal ischemia was maintained for 1 h at IOP of 110 mmHg. Upon careful withdrawal of the needle, IOP returned to normal, thereby inducing retinal ischemia–reperfusion injury. MN-08 (12 mg/kg) and Memantine (10 mg/kg) were administered via tail vein injection at 3 and 6 h post-surgery and continued twice daily for the subsequent two days. […]
Rats were euthanized by deep anesthetization with pentobarbital sodium (100 mg/kg, i.p.), and their eyes were enucleated for histology analysis. […] Ganglion cell complex (GCC) thickness and the RGCs numbers (retinal ganglion cell layer) were measured and analyzed with ImageJ software.
Eyes of sacrificed rats were rapidly removed; the cornea was cut along the corneoscleral rim after rinsing with PBS under the microscope. […] RGCs were observed using a fluorescence microscope (Olympus, Tokyo, Japan). The number of Brn-3a positive cells was counted manually in five randomly selected fields of view for each region of the whole-mount retina (including the center, mid-periphery, and periphery).

[4] = tested on: carbomer-induced glaucoma rabbit model; experiment: Carbomer-induced experimental glaucoma model in rabbits (IOP); type: in vivo; details: latanoprost 0.005% single topical instillation; 0-360 min
Description: The methods were performed as previously described. New Zealand rabbits were anesthetized using an auricular vein injection of 60 mg/kg pentobarbital sodium. Local anesthesia of the corneas was achieved using tetracaine hydrochloride, followed by pupil dilation with tropicamide. An experimental glaucoma model was established by bilaterally injecting 0.25% carbomer (0.1 mL) into the anterior eye chamber of the rabbits. On the fifth day post-carbomer injection, stable high IOP was induced in the rabbits. MN-08 (0.5%, 0.2%, 0.1%, and 0.02%) or latanoprost (0.005%) was administered with a single topical instillation. IOP was measured continuously at 0, 30, 60, 120, 240, and 360 min following instillation with MN-08 or latanoprost (with 5 consecutive measurements being averaged to obtain a single value). At the last IOP measurement, the rabbits were euthanized under sodium pentobarbital anesthesia (100 mg/kg, i.v).

For `O=C(CCC/C=C\C[C@@H]1[C@@H](CC[C@@H](O)CCc2ccccc2)[C@H](O)C[C@@H]1O)OCCCCO[N+](=O)[O-]` [Latanoprostene bunod (LBN), Latanoprostene bunod], the “reduction in IOP compared to latanoprost” value [1] is listed as “great reduction”.
In the case of `CC12CC3CC(C)(C1)CC(N)(C3)C2` [Memantine], the cGMP levels ([2]; memantine 10 μM) is given as “neither latanoprost (0.1 μM) nor memantine (10 μM) had any statistically significant effects”, the glaucoma progression (glaucoma patients; clinical trials) is given as “failed to significantly delay” and the “effect in protecting visual function” value (glaucoma patients; phase 3 clinical trial) is given as “no significant effect”. For the same compound, the “degree of retinal damage (HE staining)” value ([3]; 3 and 6 h post-surgery then twice daily for two days) was “reduced” and the “survival of RGCs (Brn-3a positive cells)” value [3] was “significantly increased”.
In the case of `CC(C)OC(=O)CCC/C=C\C[C@@H]1[C@@H](CC[C@@H](O)CCc2ccccc2)[C@H](O)C[C@@H]1O` [latanoprost], the cGMP levels ([2]; latanoprost 0.1 μM) is reported as “neither latanoprost (0.1 μM) nor memantine (10 μM) had any statistically significant effects” and the “carbomer-induced IOP elevation (change from baseline)” value [4] is reported as “reduced”.
